Columns and labels:
Leaf [1] = assay: Drug recovery in leaf of Secale cereale (rye) at 5 ng/g by LC-MS analysis
Leaf [2] = assay: Drug recovery in leaf of Secale cereale (rye) at 50 ng/g by LC-MS analysis

Row | SMILES | Drug recovery (Leaf [1]) [%] | Drug recovery (Leaf [2]) [%]
1 | COc1ccc(C2COc3cc(O)cc(O)c3C2=O)cc1 (configuration not stated) [DIHYDROBIOCHANIN A] | 104 | 76
2 | O=c1c(-c2ccc(O)cc2)coc2cc(O)cc(O)c12 [GENISTEIN] | 81 | 65
3 | COc1ccc(-c2coc3cc(O)cc(O)c3c2=O)cc1O [PRATENSEIN] | 98 | 
4 | O=C(O)/C=C/c1ccc(O)cc1 [COUMARIC ACID] | 79 | 81

Reference: ChEMBL document CHEMBL3046081, “Phytotoxic effect, uptake, and transformation of biochanin A in selected weed species” (J Agric Food Chem, 2012)
